# Measurements: patent US9399016B2, “Materials and complexes for the delivery of biologically-active materials to cells” (UCL BUSINESS PLC, priority 2006, dated 2016)
# Experiments:
# [1] = tested on: Neuro 2A, AJ3.1, bEND.3, 16HBE14o-, ΣCFTE29o- cells and primary PVSMCs; experiment: In vitro transfection, luciferase reporter, statements covering several or all cell types studied; format: cell-based; settings: for transfection efficiency of cleavable (RVRR) peptide compared with equivalent non-cleavable peptide control: Neuro 2A, bEND.3 and 16HBE14o- cells, stated for 'most' of the peptides, controls P1, P6, FMM12, PE, PY; for transfection efficiency, rank among PEG-acetal pH-sensitive lipids: all the cells, lipid/DOPE complexed to peptide 6 or E and pCI-Luc 2:4:1
# Procedure: (§1) Cells were seeded into 96-well plates at 2.5×10^3 cells per well for bEND.3 cells and at 2×10^4 cells per well for all the other cells, then incubated overnight at 37° C. in complete growth medium. The following day, lipopolyplex (LPD) formulations were prepared essentially as described previously (Hart et al., 1998), by mixing the components in the following order: 50 μl of lipid (L) at 80 μg/ml in OptiMEM, 70 μl of peptide (P) at 110 μg/ml in OptiMEM and 50 μl of plasmid pCI-Luc (D) at 40 μg/ml in OptiMEM corresponding to a weight ratio of 2:4:1, respectively. All the complexes were mixed by pipetting briefly, kept for 1 h at room temperature and then diluted in OptiMEM to a final volume of 1.57 ml. Two hundred microliters of complexes corresponding at 0.25 μg of plasmid DNA were added to each culture well after removal of the complete growth medium. All the transfections were carried out in 6 wells each. A centrifugation (1500 rpm, during 5 minutes) could be performed to promote the complex sedimentation and cell contact. The cells were incubated with the complexes for 4 h at 37° C. before replacing with fresh media for 24 h, after which reporter gene expression was analysed by luciferase assay (Promega, Madison, Wis., USA). For bEND.3 cells, 5 mM sodium butyrate was added to the transfection medium and to the fresh media to achieve optimal expression levels.
# (§2) Cells were washed once with PBS before the addition of 20 μl of 1× Reporter Lysis Buffer (Promega, Madison, Wis., USA) to the cells for 20 min at 4° C. before freezing at −80° C. for at least 30 min, followed by thawing at room temperature. Then the luciferase activity was measured during 10 seconds using the Luciferase Assay System (Promega, Madison, Wis., USA) and a Lucy-1 Luminometer (Anthos Ltd., Salzburg, Austria). The amount of protein present in each transfection lysate was determined with the Bio-Rad (Hercules, Calif., USA) protein assay reagent by the manufacturer's instructions, adding 20 μl from the luciferase test to 180 μl of the reagent diluted 1 in 5 and incubating at room temperature for 10 min before comparing the OD590 to a range of BSA standards. In vitro luciferase activity was expressed as Relative Light Units (RLU) per milligram of protein (RLU/mg).
# [2] = Hydrolysis studies of PEG-acetal cleavable lipids; format: physicochemical; settings: pH at which hydrolysis was observed; 37° C., pH range 3 to 7; TLC, confirmed by mass spectrometry
# Procedure: Hydrolysis of the PEG-acetal lipids was investigated at 37° C. over a pH range of 3 to 7.
# Acid hydrolysis of the compounds was monitored by TLC, and cleavage was then confirmed by mass spectrometry. An example of the TLC analysis method used for compound JBW389 is shown FIG. 4 with a control (the cleaved acetal product, the corresponding aldehyde) and the pH at which hydrolysis for all of the compounds prepared was observed is given in Table II.
# [3] = tested on: ΣCFTE29o- cells; experiment: In vitro transfection with LPD/LD complexes, luciferase reporter (pCI-Luc); format: cell-based, human; settings: complexed to peptide E, p<0.05
# Procedure: (§3) Cells were seeded into 96-well plates at 2.5×10^3 cells per well for bEND.3 cells and at 2×10^4 cells per well for all the other cells, then incubated overnight at 37° C. in complete growth medium. The following day, lipopolyplex (LPD) formulations were prepared essentially as described previously (Hart et al., 1998), by mixing the components in the following order: 50 μl of lipid (L) at 80 μg/ml in OptiMEM, 70 μl of peptide (P) at 110 μg/ml in OptiMEM and 50 μl of plasmid pCI-Luc (D) at 40 μg/ml in OptiMEM corresponding to a weight ratio of 2:4:1, respectively. […] The cells were incubated with the complexes for 4 h at 37° C. before replacing with fresh media for 24 h, after which reporter gene expression was analysed by luciferase assay (Promega, Madison, Wis., USA). […]
# (§4) Cells were washed once with PBS before the addition of 20 μl of 1× Reporter Lysis Buffer (Promega, Madison, Wis., USA) to the cells for 20 min at 4° C. before freezing at −80° C. for at least 30 min, followed by thawing at room temperature. Then the luciferase activity was measured during 10 seconds using the Luciferase Assay System (Promega, Madison, Wis., USA) and a Lucy-1 Luminometer (Anthos Ltd., Salzburg, Austria). […] In vitro luciferase activity was expressed as Relative Light Units (RLU) per milligram of protein (RLU/mg).
# [4] = tested on: 16HBE14o- cells; experiment: as above; format: cell-based, human; settings: complexed to peptide E, p<0.05
# Procedure: as §3, §4
# [5] = tested on: Neuro 2A cells; experiment: as above; format: cell-based, mouse
# Procedure: as §1, with “For bEND.3 cells, 5 mM sodium butyrate was added to the transfection medium and to the fresh media to achieve optimal expression levels.” left out
# as §2, with “In vitro luciferase activity was expressed as Relative Light Units (RLU) per milligram of protein (RLU/mg).” left out
# [6] = tested on: primary porcine vascular smooth muscle cells (PVSMCs); experiment: as above; format: cell-based; settings: complexed to peptide E, p<0.05
# Procedure: as §3, §4
# [7] = tested on: bEND.3 cells; experiment: as above; format: cell-based, mouse; settings: complexed to peptide E, p<0.05
# Procedure: as §1, with “For bEND.3 cells, 5 mM sodium butyrate was added to the transfection medium and to the fresh media to achieve optimal expression levels.” left out
# as §2, with “In vitro luciferase activity was expressed as Relative Light Units (RLU) per milligram of protein (RLU/mg).” left out
# [8] = tested on: female A/J mice bearing a tumour (Neuro 2A); experiment: In vivo transfection, i.v., luciferase expression in tumours and organs; parameters: species or system mouse; settings: peptide complexed to lipid ME42/DOPE and pCI-Luc, 24 hours, p>0.05
# Procedure: All animal procedures were approved and licensed by the Home Office and performed to the standards required by the UK Co-ordinating Committee on Cancer Research (UKCCCR) (Workman et al., British Journal of Cancer, 1998, 77, 1-10). Female A/J mice (Harlan Laboratories, U.K) of 8-12 weeks old were injected subcutaneously in the right posterior flank with 1.5×10^6 Neuro 2A cells. After 10±2 days, when tumors had reached approximately 8-12 mm in size, 100 μl of LPD complexes made in 5% glucose and containing 50 ug pCI-Luc or pAB 11 were injected into the tail vein. Experiments were carried out at least six times. Twenty-four hours after injection, mice were killed and tumours and organs were resected and stored at −80° C. Tissues were defrosted in ice, submersed in reporter gene assay lysis buffer (Roche, Germany), homogenized with an IKA homogenizer (IKA, Staufen, Germany) and centrifuged at 4600 rpm during 10 min at 4° C. The supernatant was got back and centrifuged at 13000 rpm during 10 min at 4° C. Luciferase activity in the tissue lysates was measured using a FLUOstar Optima (BMG Labtech, UK) during 30 seconds and was expressed as RLU per milligram of protein (RLU/mg). Two million RLU/30 sec correspond to 1 ng luciferase.
# [9] = lipofectin:peptide:pCI-Luc 2:4:1
Compound,"transfection efficiency of cleavable (RVRR) peptide compared with equivalent non-cleavable peptide control [1, 9]",Hydrolysis pH [2],"transfection efficiency, rank among PEG-acetal pH-sensitive lipids [1]",also measured
(K)16RVRRGACRRETAWACG [FMM8],as or more efficient,–,–,–
"CCCCCCCC/C=C\CCCCCCCCOCC(C[N+](C)(C)CCCC(OCCOCCO)OCCOCCO)OCCCCCCCC/C=C\CCCCCCCC (centres unmarked) [JBW389, N-(2,3-Bis((Z)-octadec-9-enyloxy)propyl)-4,4-bis(2-(2-hydroxyethoxy)ethoxy)-N,N-dimethylbutan-1-aminium chloride]",–,5.5,the best lipids for transfection,transfection efficiency relative to non-cleavable lipid JBW456 [3]: 2 times; transfection efficiency relative to non-cleavable lipid JBW456 [4]: 6 times
"CCCCCCCC/C=C\CCCCCCCCOCC(C[N+](C)(C)CCCCCC(OCCOCCOC)OCCOCCOC)OCCCCCCCC/C=C\CCCCCCCC (centres unmarked) [JBW413, N-(2,3-Bis((Z)-octadec-9-enyloxy)propyl)-6,6-bis(2-(2-methoxyethoxy)ethoxy)-N,N-dimethylhexan-1-aminium chloride]",–,5.0,the best lipids for transfection,"transfection efficiency compared with non-cleavable lipid JBW456 ([5]; complexed to peptide E, p>0.05): as efficient as JBW456"
(K)16RVRRGACSERSMNFCG [ME69],as or more efficient,–,–,–
"CCCCCCCC/C=C\CCCCCCCCOCC(C[N+](C)(C)CCCCCCCC(OCCOCCO)OCCOCCO)OCCCCCCCC/C=C\CCCCCCCC (centres unmarked) [JBW400, N-(2,3-bis((Z)-octadec-9-enyloxy)propyl)-8,8-bis(2-(2-hydroxyethoxy)ethoxy)-N,N-dimethyloctan-1-aminium chloride]",–,4.0,the best lipids for transfection,transfection efficiency relative to non-cleavable lipid JBW456 [6]: 4 times; transfection efficiency relative to non-cleavable lipid JBW456 [7]: 2 times
"CCCCCCCC/C=C\CCCCCCCCOCC(C[N+](C)(C)CCCCCC(OCCOCCO)OCCOCCO)OCCCCCCCC/C=C\CCCCCCCC (centres unmarked) [JBW411, N-(2,3-bis((Z)-octadec-9-enyloxy)propyl)-6,6-bis(2-(2-hydroxyethoxy)ethoxy)-N,N-dimethylhexan-1-aminium chloride]",–,3.5,less efficient,–
CCCCCCCC/C=C\CCCCCCCCOCC(C[N+](C)(C)CCCCCC(OCCOCCOCCOCCO)OCCOCCOCCOCCO)OCCCCCCCC/C=C\CCCCCCCC (centres unmarked) [JBW412],–,3.0,less efficient,–
"CCCC/C=C\CCCCCCCCCCOCC(C[N+](C)(C)CCCCCC(OCCOCCO)OCCOCCO)OCCCCCCCCCC/C=C\CCCC (centres unmarked) [JBW418, N-(2,3-Bis((Z)-hexadec-11-enyloxy)propyl)-6,6-bis(2-(2-hydroxyethoxy)ethoxy)-N,N-dimethylhexan-1-aminium chloride]",–,3.0,less efficient,–
(K)16RVRRGACRGDMFGCA [ME68],as or more efficient,–,–,–
(K)16RVRRGACYGLPHKFCG [PCY],as or more efficient,–,–,–
(K)16RVRRGACRGDCLG [ME27],as or more efficient,–,–,"luciferase expression in tumour, by peptide [8]: 105000 RLU/mg; transfection efficiency compared with non-cleavable peptide ME61 [5, 9]: as efficient as the non-cleavable control peptide ME61; transfection efficiency, rank among cleavable peptides ME27, ME28, ME29 ([1]; lipofectin:peptide:pCI-Luc 2:4:1, each of Neuro 2A, AJ3.1, bEND.3, 16HBE14o-, ΣCFTE29o-, PVSMCs, p<0.05): significantly the best cleavable peptide; transfection efficiency compared with non-cleavable peptide ME61 ([1]; lipofectin:peptide:pCI-Luc 2:4:1, other cell lines than Neuro 2A, p<0.05): significantly more efficient than ME61"
